Test results taken from patent US20230085307A1, “PYRIDAZINONE COMPOUND AND HERBICIDE” (NISSAN CHEMICAL CORPORATION, priority 2019, published 2023).

Columns and labels:
windgrass [1] = test: Test Example 4: herbicidal effect by soil treatment (Table 19, symbol L); type: in vivo, windgrass (Apera spica-venti); settings: amount of applied herbicide 320 g/ha
In short: (§1)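 Three weeks of greenhouse growth at 25° C. to 30° C. followed a uniform surface spray of water-diluted emulsion at a predetermined herbicide amount. Seeds had been sown beforehand under about 1.5 cm of sterilized diluvial soil. Grading followed criteria set out in an earlier test.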

velvetleaf [2] = test: Test Example 4: herbicidal effect by soil treatment (Table 19, symbol M); type: in vivo, velvetleaf (Abutilon theophrasti); settings: amount of applied herbicide 320 g/ha
In short: as §1

chickweed [3] = test: Test Example 4: herbicidal effect by soil treatment (Table 19, symbol P); type: in vivo, common chickweed (Stellaria media); settings: amount of applied herbicide 320 g/ha
In short: as §1

barnyard grass [4] = test: Test Example 5: herbicidal effect by foliage application, plastic box (Table 20, symbol H); type: in vivo, barnyard grass (Echinochloa crus-galli); settings: foliage application, 320 g/ha, three weeks after application
In short: (§2)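 Plants sown in sterilized diluvial soil and grown 14 days in a greenhouse at 25° C to 30° C, then sprayed on the foliage with the compound's emulsion diluted in water to a predetermined herbicide amount. Injury to weeds and crops scored three weeks after application on a visual rating scale.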

blackgrass [5] = test: Test Example 4: herbicidal effect by soil treatment (Table 19, symbol J); type: in vivo, blackgrass (Alopecurus myosuroides); settings: amount of applied herbicide 320 g/ha
In short: as §1

southern crabgrass [6] = test: Test Example 5: herbicidal effect by foliage application, plastic box (Table 20, symbol F); type: in vivo, southern crabgrass (Digitaria ciliaris); settings: foliage application, 320 g/ha, three weeks after application
In short: as §2

Chinese sprangletop = test: Test Example 3: herbicidal effect by foliage application, Wagner pot (Table 18, symbol D); type: in vivo, chinese sprangletop (Leptochloa chinensis); settings: 320 g/ha
In short: (§3)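 Plants were sown in alluvial soil held under 0.1–0.5 cm standing water and grown 14 days in a greenhouse at 25–30 °C. An emulsifiable formulation, water-diluted to the set dose, was then sprayed onto the foliage, and effects were scored three weeks later using previously defined criteria.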

barnyard grass [7] = test: Test Example 4: herbicidal effect by soil treatment (Table 19, symbol H); type: in vivo, barnyard grass (Echinochloa crus-galli); settings: amount of applied herbicide 320 g/ha
In short: as §1

lambsquarters [8] = test: Test Example 5: herbicidal effect by foliage application, plastic box (Table 20, symbol O); type: in vivo, lambsquarters (Chenopodium album); settings: foliage application, 320 g/ha, three weeks after application
In short: as §2

false cleavers [9] = test: Test Example 5: herbicidal effect by foliage application, plastic box (Table 20, symbol Q); type: in vivo, false cleavers (Galium spurium); settings: foliage application, 320 g/ha, three weeks after application
In short: as §2

oval-leafed pondweed = test: Test Example 1: herbicidal activity, application before weed generation under submerged conditions (Table 16, symbol C); type: in vivo, oval-leafed pondweed (Monochoria vaginalis); settings: 320 g/ha applied herbicide
In short: (§4)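 Submerged Wagner pots (alluvial soil, 4 cm water) sown with weed seeds and planted with 2.5-leaf rice seedlings; emulsifiable concentrate diluted in water applied to water surface on sowing day. Held in greenhouse at 25-30 °C; injury scored 0-5 by herbicidal rate after three weeks.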

wild oat [10] = test: Test Example 5: herbicidal effect by foliage application, plastic box (Table 20, symbol I); type: in vivo, wild oat (Avena fatua); settings: foliage application, 320 g/ha, three weeks after application
In short: as §2

green foxtail [11] = test: Test Example 4: herbicidal effect by soil treatment (Table 19, symbol G); type: in vivo, green foxtail (Setaria viridis); settings: amount of applied herbicide 320 g/ha
In short: as §1

lambsquarters [12] = test: Test Example 4: herbicidal effect by soil treatment (Table 19, symbol O); type: in vivo, lambsquarters (Chenopodium album); settings: amount of applied herbicide 320 g/ha
In short: as §1

rice flat sedge = test: Test Example 3: herbicidal effect by foliage application, Wagner pot (Table 18, symbol E); type: in vivo, rice flat sedge (Cyperus iria); settings: 320 g/ha
In short: as §3

persian speedwell [13] = test: Test Example 4: herbicidal effect by soil treatment (Table 19, symbol R); type: in vivo, Persian speedwell (Veronica persica); settings: amount of applied herbicide 320 g/ha
In short: as §1

wild oat [14] = test: Test Example 4: herbicidal effect by soil treatment (Table 19, symbol I); type: in vivo, wild oat (Avena fatua); settings: amount of applied herbicide 320 g/ha
In short: as §1

chickweed [15] = test: Test Example 5: herbicidal effect by foliage application, plastic box (Table 20, symbol P); type: in vivo, common chickweed (Stellaria media); settings: foliage application, 320 g/ha, three weeks after application
In short: as §2

green foxtail [16] = test: Test Example 5: herbicidal effect by foliage application, plastic box (Table 20, symbol G); type: in vivo, green foxtail (Setaria viridis); settings: foliage application, 320 g/ha, three weeks after application
In short: as §2

Japanese bulrush = test: Test Example 1: herbicidal activity, application before weed generation under submerged conditions (Table 16, symbol B); type: in vivo, Japanese bulrush (Schoenoplectus juncoides); settings: 320 g/ha applied herbicide
In short: as §4

persian speedwell [17] = test: Test Example 5: herbicidal effect by foliage application, plastic box (Table 20, symbol R); type: in vivo, Persian speedwell (Veronica persica); settings: foliage application, 320 g/ha, three weeks after application
In short: as §2

Italian ryegrass [18] = test: Test Example 4: herbicidal effect by soil treatment (Table 19, symbol K); type: in vivo, Italian ryegrass (Lolium multiflorum); settings: amount of applied herbicide 320 g/ha
In short: as §1

barnyard grass [19] = test: Test Example 3: herbicidal effect by foliage application, Wagner pot (Table 18, symbol H); type: in vivo, barnyard grass (Echinochloa crus-galli); settings: 320 g/ha
In short: as §3

velvetleaf [20] = test: Test Example 5: herbicidal effect by foliage application, plastic box (Table 20, symbol M); type: in vivo, velvetleaf (Abutilon theophrasti); settings: foliage application, 320 g/ha, three weeks after application
In short: as §2

southern crabgrass [21] = test: Test Example 4: herbicidal effect by soil treatment (Table 19, symbol F); type: in vivo, southern crabgrass (Digitaria ciliaris); settings: amount of applied herbicide 320 g/ha
In short: as §1

blackgrass [22] = test: Test Example 5: herbicidal effect by foliage application, plastic box (Table 20, symbol J); type: in vivo, blackgrass (Alopecurus myosuroides); settings: foliage application, 320 g/ha, three weeks after application
In short: as §2

false cleavers [23] = test: Test Example 4: herbicidal effect by soil treatment (Table 19, symbol Q); type: in vivo, false cleavers (Galium spurium); settings: amount of applied herbicide 320 g/ha
In short: as §1

Italian ryegrass [24] = test: Test Example 5: herbicidal effect by foliage application, plastic box (Table 20, symbol K); type: in vivo, Italian ryegrass (Lolium multiflorum); settings: foliage application, 320 g/ha, three weeks after application
In short: as §2

late watergrass = test: Test Example 1: herbicidal activity, application before weed generation under submerged conditions (Table 16, symbol A); type: in vivo, late watergrass (Echinochloa oryzicola); settings: 320 g/ha applied herbicide
In short: as §4

windgrass [25] = test: Test Example 5: herbicidal effect by foliage application, plastic box (Table 20, symbol L); type: in vivo, windgrass (Apera spica-venti); settings: foliage application, 320 g/ha, three weeks after application
In short: as §2

redroot pigweed [26] = test: Test Example 4: herbicidal effect by soil treatment (Table 19, symbol N); type: in vivo, redroot pigweed (Amaranthus retroflexus); settings: amount of applied herbicide 320 g/ha
In short: as §1

redroot pigweed [27] = test: Test Example 5: herbicidal effect by foliage application, plastic box (Table 20, symbol N); type: in vivo, redroot pigweed (Amaranthus retroflexus); settings: foliage application, 320 g/ha, three weeks after application
In short: as §2

Structure (SMILES)	herbicidal effect rating, L: windgrass (windgrass [1])	herbicidal effect rating, M: velvetleaf (velvetleaf [2])	herbicidal effect rating, P: chickweed (chickweed [3])	herbicidal effect grade, H: barnyard grass (barnyard grass [4])	herbicidal effect rating, J: blackgrass (blackgrass [5])	herbicidal effect grade, F: southern crabgrass (southern crabgrass [6])	herbicidal effect on D (Chinese sprangletop), rating 0-5 (Chinese sprangletop)	herbicidal effect rating, H: barnyard grass (barnyard grass [7])	herbicidal effect grade, O: lambsquarters (lambsquarters [8])	herbicidal effect grade, Q: false cleavers (false cleavers [9])	Herbicidal effect on C: oval-leafed pondweed (grade 0-5) (oval-leafed pondweed)	herbicidal effect grade, I: wild oat (wild oat [10])	herbicidal effect rating, G: green foxtail (green foxtail [11])	herbicidal effect rating, O: lambsquarters (lambsquarters [12])	herbicidal effect on E (rice flat sedge), rating 0-5 (rice flat sedge)	herbicidal effect rating, R: persian speedwell (persian speedwell [13])	herbicidal effect rating, I: wild oat (wild oat [14])	herbicidal effect grade, P: chickweed (chickweed [15])	herbicidal effect grade, G: green foxtail (green foxtail [16])	Herbicidal effect on B: Japanese bulrush (grade 0-5) (Japanese bulrush)	also measured
Cc1nn(C)c(=O)c(-c2c(-c3ccccc3OC(C)C)sc3ccccc23)c1O [1-017]	0 (Herbicidal rate of 5% or less (almost no effect))	0 (Herbicidal rate of 5% or less (almost no effect))	4 (Herbicidal rate of 70% or more and less than 90%)	4 (Herbicidal rate of 70% or more and less than 90%)	2 (Herbicidal rate of 20% or more and less than 40%)	3 (Herbicidal rate of 40% or more and less than 70%)	0 (Herbicidal rate of 5% or less (almost no effect))	0 (Herbicidal rate of 5% or less (almost no effect))	3 (Herbicidal rate of 40% or more and less than 70%)	5 (Herbicidal rate of 90% or more (almost completely withered))	3 (Herbicidal rate of 40% or more and less than 70%)	4 (Herbicidal rate of 70% or more and less than 90%)	0 (Herbicidal rate of 5% or less (almost no effect))	0 (Herbicidal rate of 5% or less (almost no effect))	3 (Herbicidal rate of 40% or more and less than 70%)	4 (Herbicidal rate of 70% or more and less than 90%)	1 (Herbicidal rate of 5% or more and less than 20%)	5 (Herbicidal rate of 90% or more (almost completely withered))	4 (Herbicidal rate of 70% or more and less than 90%)	3 (Herbicidal rate of 40% or more and less than 70%)	herbicidal effect grade, R: persian speedwell (persian speedwell [17]): 5 (Herbicidal rate of 90% or more (almost completely withered)); herbicidal effect rating, K: Italian ryegrass (Italian ryegrass [18]): 0 (Herbicidal rate of 5% or less (almost no effect)); herbicidal effect on H (barnyard grass), rating 0-5 (barnyard grass [19]): 5 (Herbicidal rate of 90% or more (almost completely withered)); herbicidal effect grade, M: velvetleaf (velvetleaf [20]): 4 (Herbicidal rate of 70% or more and less than 90%); herbicidal effect rating, F: southern crabgrass (southern crabgrass [21]): 0 (Herbicidal rate of 5% or less (almost no effect)); herbicidal effect grade, J: blackgrass (blackgrass [22]): 4 (Herbicidal rate of 70% or more and less than 90%); herbicidal effect rating, Q: false cleavers (false cleavers [23]): 0 (Herbicidal rate of 5% or less (almost no effect)); herbicidal effect grade, K: Italian ryegrass (Italian ryegrass [24]): 2 (Herbicidal rate of 20% or more and less than 40%); Herbicidal effect on A: late watergrass (grade 0-5) (late watergrass): 3 (Herbicidal rate of 40% or more and less than 70%); herbicidal effect grade, L: windgrass (windgrass [25]): 4 (Herbicidal rate of 70% or more and less than 90%); herbicidal effect rating, N: redroot pigweed (redroot pigweed [26]): 0 (Herbicidal rate of 5% or less (almost no effect)); herbicidal effect grade, N: redroot pigweed (redroot pigweed [27]): 4 (Herbicidal rate of 70% or more and less than 90%)
CCCCCOc1ccc(-c2sc3ccccc3c2-c2c(OC(=O)CCC)c(C)nn(C)c2=O)cc1 [1-027]	0 (Herbicidal rate of 5% or less (almost no effect))	0 (Herbicidal rate of 5% or less (almost no effect))	2 (Herbicidal rate of 20% or more and less than 40%)	3 (Herbicidal rate of 40% or more and less than 70%)	0 (Herbicidal rate of 5% or less (almost no effect))	0 (Herbicidal rate of 5% or less (almost no effect))	2 (Herbicidal rate of 20% or more and less than 40%)	0 (Herbicidal rate of 5% or less (almost no effect))	3 (Herbicidal rate of 40% or more and less than 70%)	3 (Herbicidal rate of 40% or more and less than 70%)	0 (Herbicidal rate of 5% or less (almost no effect))	0 (Herbicidal rate of 5% or less (almost no effect))	0 (Herbicidal rate of 5% or less (almost no effect))	0 (Herbicidal rate of 5% or less (almost no effect))	1 (Herbicidal rate of 5% or more and less than 20%)	2 (Herbicidal rate of 20% or more and less than 40%)	0 (Herbicidal rate of 5% or less (almost no effect))	5 (Herbicidal rate of 90% or more (almost completely withered))	0 (Herbicidal rate of 5% or less (almost no effect))	2 (Herbicidal rate of 20% or more and less than 40%)	herbicidal effect grade, R: persian speedwell (persian speedwell [17]): 4 (Herbicidal rate of 70% or more and less than 90%); herbicidal effect rating, K: Italian ryegrass (Italian ryegrass [18]): 0 (Herbicidal rate of 5% or less (almost no effect)); herbicidal effect on H (barnyard grass), rating 0-5 (barnyard grass [19]): 3 (Herbicidal rate of 40% or more and less than 70%); herbicidal effect grade, M: velvetleaf (velvetleaf [20]): 3 (Herbicidal rate of 40% or more and less than 70%); herbicidal effect rating, F: southern crabgrass (southern crabgrass [21]): 0 (Herbicidal rate of 5% or less (almost no effect)); herbicidal effect grade, J: blackgrass (blackgrass [22]): 0 (Herbicidal rate of 5% or less (almost no effect)); herbicidal effect rating, Q: false cleavers (false cleavers [23]): 3 (Herbicidal rate of 40% or more and less than 70%); herbicidal effect grade, K: Italian ryegrass (Italian ryegrass [24]): 0 (Herbicidal rate of 5% or less (almost no effect)); Herbicidal effect on A: late watergrass (grade 0-5) (late watergrass): 0 (Herbicidal rate of 5% or less (almost no effect)); herbicidal effect grade, L: windgrass (windgrass [25]): 0 (Herbicidal rate of 5% or less (almost no effect)); herbicidal effect rating, N: redroot pigweed (redroot pigweed [26]): 0 (Herbicidal rate of 5% or less (almost no effect)); herbicidal effect grade, N: redroot pigweed (redroot pigweed [27]): 5 (Herbicidal rate of 90% or more (almost completely withered))
